Assay results taken from patent publication US20100317671A1, “XANTHINE-BASED CYCLIC GMP-ENHANCING RHO-KINASE INHIBITOR INHIBITS PHYSIOLOGICAL ACTIVITIES OF LUNG EPITHELIAL CELL LINE” (KAOHSIUNG MEDICAL UNIVERSITY, priority 2008, published 2010).
Where a name gives a salt, the structure may show the parent alone.

What was measured:
[1] = test system: MMP-9; test: OVA-induced MMP-9 expression in lung tissue, asthma mice; assay type: in vivo, BALB/c mice; settings: OVA + drug 5 mM spray, 30 mins/day, days 21 to 27; lung tissue; OVA + vehicle control 100%
Experimental: The male BALB/c mice (20-23 g) are injected (i.p.) with OVA (5 mM, 30 mins), sensitized with OVA on day 1 and day 8 via i.p injection and activated by 2 mg aluminum hydroxide to which 2 μg OVA is absorbed. […] The asthmatic animals are divided into 5 groups, wherein the control group is only administered with saline spray and the remaining experimental groups are firstly administered with 1% OVA spray and then administered with the sprays of the related complex salts respectively as shown in Table 4. The inhibition of the expression of OVA-induced MMP-9 in lung tissue of BALB/c mice is measured.

[2] = test system: TGF-β; test: TGF-β expression, bleomycin-induced lung fibrosis (EIA); assay type: in vivo, mice; settings: BM 60 mg/kg
Experimental: The increased amount of the collagen synthesis and the macrophage generation in alveolus may facilitate the formulation of TGF-β, and the expression of TGF-β is deeming as a biomarker of the lung fibrosis. KMUP-1HCl salt (1, 2.5 and 5 mg/kg), the Simvastatin (5 mg/kg), the KMUP-1-nicotinic acid complex (2.5 mg/kg), the KMUP-1-Simvastatinic acid complex (2.5 mg/kg) and KMUP-1-γ-polyglutamic acid complex (2.5 mg/kg) are orally administered to the mice for inhibiting the lung fibrosis induced by TGF-β expression in tracheal lavage solution that resulted from 60 mg/kg BM inhalation (Table 6). The state of the TGF-β expression in the lavage is measured by the enzyme immunoassay (EIA).

[3] = Monocrotaline (MCT)-induced pulmonary arterial hypertension, PABP; assay type: in vivo, male Wistar rats; settings: MCT-treated rats; for Pulmonary arterial blood pressure (PABP), in words: 2.5 mg/kg orally every day; for PABP: 2.5 mg/kg/day p.o.
Experimental: The rats administered MCT (60 mg/kg) are caused pulmonary artery hypertension on day 21 after the intraperitoneal injection. The KMUP-1HCl salt (2.5 mg/kg), Simvastatin (2.5 mg/kg), KMUP-1-nicotinic acid complex (2.5 mg/kg), KMUP-1-citric acid complex (2.5 mg/kg), KMUP-1-Simvastatinic Acid complex (2.5 mg/kg) and KMUP-1-γ-polyglutamic acid complex (2.5 mg/kg) orally administered, or the KMUP-1-PGI2 complex (0.1 mM) inhaled every day may inhibit the pulmonary arterial blood pressure (PABP) in MCT-treated male Wistar rats.

[4] = Body weight change, bleomycin-induced IPF mice; assay type: in vivo
Experimental: The six-week old mice are used in this experiment and divided into ten groups as follows. […] The six-week old male C57B1/6 mice are purchased from the National Laboratory Animal Center. […] After being […] pentobarbital in the dose of 0.52 mg/10 g, the mice is kept upright and positioned an otoscope into the larynx for looking into the trachea clearly. The bleomycin is loaded by a loading tip for intratracheal administration.

[5] = test system: collagen; test: Collagen amount, bleomycin-induced IPF mice; assay type: in vivo; settings: day 28 after BLM
Experimental: The amount of the collagen in the lung lavage is measured to reflect the fibrosis formation. […] (2) After the lung lavage is obtained, the chest of mice is opened and the lung lobes are cut one by one. […] The 1.5 ml eppendorffs are taken to arrange the calibration curve as follows. […] The eppendorff is then centrifuged at 12,000 rpm for 10 mins. The supernatant in the eppendorff is poured out slowly, 1 ml basic compound is added for dissolving the precipitation. After being violently shaken for 5 mins, the reaction is incubated for 3 hrs to stabilize the color. […] The amount of collagen is estimated through the 540 nm absorption measured by the ELISA reader.

[6] = test system: inflammatory cells in the lung lavage; test: Inflammatory cells in lung lavage, bleomycin-induced IPF mice; assay type: in vivo; parameters: WBC total (white blood cell total count) / NE (neutrophil) / LY (lymphocyte) / MO (monocyte) / EO (eosinophil) / BA (basophil): unit not given here; settings: lung lavage
Experimental: The amounts of the total cell, the neutrophill, the lymphocyte, the monocyte, the eosinophill and the basophill are analyzed by an automatic animal blood cell analyzer for evaluating the extent of the inflammation. […] The mice are euthanatized by administering the Urathane in a dose of 37.5 mg/10 g. The larynx is opened, the trachea is picked out, cut and held by a forcepts and a 0.58 mm PE tube is slowly inserted the trachea for infusing 0.5 ml PBS. The PBS is incubated for 15 seconds and then collected after gently massaging the lung tissue. 1 c.c. lung lavage is obtained after the above steps are repeated twice. The lung lavage is collected and transferred into a centrifuged tube for centrifuging at 1,200 rpm at 4° C. for 6 mins. The supernatant is collected and stored at −80° C. for zymography, and the pellet is suspended in PBS for calculating the WBC count. The pellet of the alveolar lavage is suspended in PBS and transferred into an eppendorff. The amount and kind of the inflammatory cell such as WBC total, the lymphocyte, the monocyte, the neutrophil, the eosinophil and the basophil are analyzed by an automatic animal blood cell analyzer.

[7] = test system: eNOS; test: Short-term nebulization without OVA sensitization, lung tissue; assay type: in vivo, mice; settings: L-NAME-pretreatment 12 mM, 30 mins
Experimental: (§1) Short-term KMUP-1 (5 mM, 30 min) nebulization and pretreatment with L-NAME (12 mM, […]) are accomplished using a previously described method. Aerosols were generated by ultrasonic nebulizer from day 21 to 27. Mice were sacrificed on day 28. Three different experiments were performed on cohorts of 7-14 mice per experimental condition.
(§2) Please refer to FIGS. 22(B) and 23(B), the changes of eNOS and MMP-9 expression by KMUP-1 (2.5 mM, 30 mins) are reversed by L-NAME-pretreatment (12 mM, 30 mins).

[8] = test system: MMP-9; test: as above; assay type: in vivo, mice; settings: L-NAME-pretreatment 12 mM, 30 mins
Experimental: as §1, §2

[9] = test system: inflammatory cells; test: H&E stain of lung tissue sections, bleomycin mice; assay type: in vivo; settings: day 28
Excerpt: In the histology observation, the bleomycin-induced mice show the pathology characteristic of lung fibrosis. In the lung tissue sections of the normal control group, the structure of the lung tissue is clear and has no inflammatory cells infiltration, the alveolar wall is complete and not being broaden, the lung atrophy and the vascular wall thickening are not found, and the inflammatory cells infiltration is not found in the bronchial cavity and the alveolar cavity. […] On day 28, the alveolar is dystructured, the macrophage aggregation can be seen in part of aveoli, the fibroblast and fibric cell proliferate, and the fibers are accumulated in the lung interstitium. In the treating group, the inflammatory state is inhibited well on day 7.
The with 10% formalin treated and freezed lung is placed in a tissue dehydrating machine, and the tissue is fixed, dehydrated, washed and rinsed in turn. The tissue is further prepared as a wax-embedded tissue by a tissue embedded machine through appropriate cooling. The wax-embedded tissue is cut by a sliding microtome. The slices about 4 μm are placed on the slides and extended in 35° C.-50° C. warm water, and then dried in a 56° C.-60° C. extender for staining
The slices are successively dehydrated via 50%-99.9% ethanol, incubated in xylene for 2 hrs and the incubation step is repeated twice. […]

## CC(=O)N[C@@H](CS)C(=O)O.Cn1c(=O)c2c(ncn2CCN2CCN(c3ccccc3Cl)CC2)n(C)c1=O [KMUP-1-Acetylcysteine]
[1]
  Inhibition % of the MMP-9: 68%

## Cn1c(=O)c2c(ncn2CCN2CCN(c3ccccc3Cl)CC2)n(C)c1=O [KMUP-1 HCl salt]
[2]; drug 2.5 mg/kg oral
  The changing amount of TGF-β in the lung tissue: 52 ± 5.2%
[1]
  Inhibition % of the MMP-9: 55%
[3]
  Pulmonary arterial blood pressure (PABP), in words: inhibit
  PABP: 13 ± 1.7 mmHg

## Cn1c(=O)c2c(ncn2CCN2CCN(c3ccccc3Cl)CC2)n(C)c1=O.N=C(N)NCCCC(N)C(=O)O [KMUP-1-Arginine]
[1]
  Inhibition % of the MMP-9: 65%

## CC(C)(O)c1ccccc1CCC(SCC1(CC(=O)O)CC1)c1cccc(C=Cc2ccc3ccc(Cl)cc3n2)c1.Cn1c(=O)c2c(ncn2CCN2CCN(c3ccccc3Cl)CC2)n(C)c1=O (stereo not drawn) [KMUP-1-Montelukast]
[1]
  Inhibition % of the MMP-9: 70%

## Cn1c(=O)c2c(ncn2CCN2CCN(c3ccccc3Cl)CC2)n(C)c1=O.O=C(O)c1cccnc1 [KMUP-1-Nicotinic acid]
[2]; drug 2.5 mg/kg oral
  The changing amount of TGF-β in the lung tissue: 42 ± 3.8%
[3]
  Pulmonary arterial blood pressure (PABP), in words: inhibit
  PABP: 12 ± 2.6 mmHg

## CCC(C)(C)C(=O)O[C@H]1C[C@@H](C)C=C2C=C[C@H](C)[C@H](CC[C@@H]3C[C@@H](O)CC(=O)O3)[C@H]21 [Simvastatin, reference compound]
[2]; drug 5 mg/kg oral
  The changing amount of TGF-β in the lung tissue: 40 ± 4.3%
[4]; Day 7, dose 5 mg/kg
  Body weight: 17.9 ± 1.56 g
[4]; Day 14, dose 5 mg/kg
  Body weight: 19.8 ± 2.31 g
[4]; Day 28, dose 5 mg/kg
  Body weight: 20.3 ± 1.65 g
[4]; Day −3, dose 5 mg/kg
  Body weight: 23.5 ± 1.32 g
[5]; dose 5 mg/kg
  The amount of collagen: 140.53 ± 0.05 μg/lung
[6]; day 7, dose 5 mg/kg
  BA (basophil): 0.22 ± 0.23
  EO (eosinophil): 0.46 ± 0.4
  LY (lymphocyte): 1.5 ± 2.17
  MO (monocyte): 0.13 ± 0.19
  NE (neutrophil): 0.76 ± 0.53
  WBC total (white blood cell total count): 3.09 ± 2.98
[6]; day 28, dose 5 mg/kg
  BA (basophil): 0.22 ± 0.22
  EO (eosinophil): 0.46 ± 0.35
  LY (lymphocyte): 1.5 ± 3.03
  MO (monocyte): 0.13 ± 0.26
  NE (neutrophil): 0.76 ± 0.61
  WBC total (white blood cell total count): 3.09 ± 0.92

## COC(=O)[C@@H](N)CCCNC(=N)N[N+](=O)[O-] [L-NAME, reference compound]
[7]
  Change of eNOS expression by KMUP-1 (2.5 mM, 30 mins): reversed
[8]
  Change of MMP-9 expression by KMUP-1 (2.5 mM, 30 mins): reversed

## CC[C@H]1OC(=O)[C@H](C)[C@@H](O[C@H]2C[C@@](C)(OC)[C@@H](O)[C@H](C)O2)[C@H](C)[C@@H](O[C@@H]2O[C@H](C)C[C@H](N(C)C)[C@H]2O)[C@](C)(OC)C[C@@H](C)C(=O)[C@H](C)[C@@H](O)[C@]1(C)O [Clarithromycin, reference compound]
[4]; Day 7, dose 10 mg/kg
  Body weight: 19.93 ± 3.28 g
[4]; Day 14, dose 10 mg/kg
  Body weight: 19.17 ± 3.77 g
[4]; Day 28, dose 10 mg/kg
  Body weight: 24.7 ± 1.21 g
[4]; Day −3, dose 10 mg/kg
  Body weight: 24.6 ± 1.48 g
[5]; dose 10 mg/kg
  The amount of collagen: 86.07 ± 0.02 μg/lung
[9]
  Inflammation, H&E stain: still has a significant inflammation phenomenon
[6]; day 7, dose 10 mg/kg
  BA (basophil): 0.02 ± 0.01
  EO (eosinophil): 0.07 ± 0.02
  LY (lymphocyte): 0.56 ± 0.17
  MO (monocyte): 0.05 ± 0.02
  NE (neutrophil): 0.2 ± 0.09
  WBC total (white blood cell total count): 0.89 ± 0.3
[6]; day 28, dose 10 mg/kg
  BA (basophil): 0.25 ± 0.16
  EO (eosinophil): 0.5 ± 0.33
  LY (lymphocyte): 1.64 ± 1.49
  MO (monocyte): 0.16 ± 0.16
  NE (neutrophil): 0.68 ± 0.57
  WBC total (white blood cell total count): 3.23 ± 0.52
